Our source for the IC50 values is ChEMBL document CHEMBL5512649, “Drug development and potential targets for Cushing's syndrome” (Eur J Med Chem, 2024).

Structures are written as SMILES.

The target of assay [1] is Nuclear factor NF-kappa-B complex (Homo sapiens, UniProt P19838+Q00653+Q04206). Briefly: Inhibition of NF-kappaB (unknown origin). In kind it is protein-complex assay.
In assay [2] the target is Cyclin-dependent kinase 6 (Homo sapiens, UniProt Q00534). Briefly: Inhibition of CDK6 (unknown origin).
In assay [3] the target is T1, Histone acetyltransferase type B catalytic subunit (Homo sapiens, UniProt O14929).
T1 sequence (O14929 whole entry): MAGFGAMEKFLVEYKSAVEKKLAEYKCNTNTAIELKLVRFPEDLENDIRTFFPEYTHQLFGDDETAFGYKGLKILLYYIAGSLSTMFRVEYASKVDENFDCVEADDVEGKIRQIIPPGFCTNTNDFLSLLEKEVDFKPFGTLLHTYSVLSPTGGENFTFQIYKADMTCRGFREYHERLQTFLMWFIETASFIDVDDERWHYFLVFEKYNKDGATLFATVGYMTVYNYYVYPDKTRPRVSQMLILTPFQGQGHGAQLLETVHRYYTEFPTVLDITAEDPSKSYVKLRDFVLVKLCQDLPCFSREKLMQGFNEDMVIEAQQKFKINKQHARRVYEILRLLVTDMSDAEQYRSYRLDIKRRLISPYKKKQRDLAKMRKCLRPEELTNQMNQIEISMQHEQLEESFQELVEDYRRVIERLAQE
Briefly: Inhibition of HAT1 (unknown origin).

Assay [4] concerns the target DNA (cytosine-5)-methyltransferase 1 (Homo sapiens, UniProt P26358). As to the kind of experiment: Inhibition of DNMT1 (unknown origin).
Assay [5] addresses ATP-dependent translocase ABCB1 (Homo sapiens, UniProt P08183). Briefly: Inhibition of MDR1 (unknown origin).
Assay [6] concerns the target Cyclin-dependent kinase 1 (Homo sapiens, UniProt P06493). As to the kind of experiment: Inhibition of CDK1 (unknown origin).
For assay [7], the target named is Cyclin-dependent kinase 9 (Homo sapiens, UniProt P50750). As to the kind of experiment: Inhibition of CDK9 (unknown origin).
The target of assay [8] is Cyclin-dependent kinase 4 (Homo sapiens, UniProt P11802). Briefly: Inhibition of CDK4 (unknown origin).

Sequence of Nuclear factor NF-kappa-B complex (P19838 1-433 limits assumed): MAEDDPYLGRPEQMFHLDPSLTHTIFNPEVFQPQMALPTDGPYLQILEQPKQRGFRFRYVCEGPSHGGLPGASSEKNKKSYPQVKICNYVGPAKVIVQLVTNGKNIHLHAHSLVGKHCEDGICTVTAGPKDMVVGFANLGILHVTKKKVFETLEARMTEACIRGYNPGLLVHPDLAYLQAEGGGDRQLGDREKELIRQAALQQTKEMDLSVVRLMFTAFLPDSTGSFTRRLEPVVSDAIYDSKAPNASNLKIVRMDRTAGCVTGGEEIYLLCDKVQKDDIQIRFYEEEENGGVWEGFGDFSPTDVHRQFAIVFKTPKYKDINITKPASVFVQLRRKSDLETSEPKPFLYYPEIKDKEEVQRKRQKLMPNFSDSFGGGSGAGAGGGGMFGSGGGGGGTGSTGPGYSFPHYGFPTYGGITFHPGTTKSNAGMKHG
Sequence of Nuclear factor NF-kappa-B complex (Q00653 1-454 limits assumed): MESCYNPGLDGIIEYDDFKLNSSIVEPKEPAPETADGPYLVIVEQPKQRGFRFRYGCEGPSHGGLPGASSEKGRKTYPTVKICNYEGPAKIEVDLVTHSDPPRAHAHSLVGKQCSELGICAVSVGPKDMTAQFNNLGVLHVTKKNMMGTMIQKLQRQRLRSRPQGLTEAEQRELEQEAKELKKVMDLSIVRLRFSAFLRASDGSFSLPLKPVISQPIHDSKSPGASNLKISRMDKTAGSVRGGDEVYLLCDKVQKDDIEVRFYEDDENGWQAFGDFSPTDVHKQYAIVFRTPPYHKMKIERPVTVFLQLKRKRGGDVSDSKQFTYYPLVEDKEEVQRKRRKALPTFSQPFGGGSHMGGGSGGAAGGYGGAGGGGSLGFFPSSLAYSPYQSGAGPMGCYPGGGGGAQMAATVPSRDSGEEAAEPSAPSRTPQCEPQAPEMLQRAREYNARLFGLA
Sequence of Nuclear factor NF-kappa-B complex (Q04206 whole entry): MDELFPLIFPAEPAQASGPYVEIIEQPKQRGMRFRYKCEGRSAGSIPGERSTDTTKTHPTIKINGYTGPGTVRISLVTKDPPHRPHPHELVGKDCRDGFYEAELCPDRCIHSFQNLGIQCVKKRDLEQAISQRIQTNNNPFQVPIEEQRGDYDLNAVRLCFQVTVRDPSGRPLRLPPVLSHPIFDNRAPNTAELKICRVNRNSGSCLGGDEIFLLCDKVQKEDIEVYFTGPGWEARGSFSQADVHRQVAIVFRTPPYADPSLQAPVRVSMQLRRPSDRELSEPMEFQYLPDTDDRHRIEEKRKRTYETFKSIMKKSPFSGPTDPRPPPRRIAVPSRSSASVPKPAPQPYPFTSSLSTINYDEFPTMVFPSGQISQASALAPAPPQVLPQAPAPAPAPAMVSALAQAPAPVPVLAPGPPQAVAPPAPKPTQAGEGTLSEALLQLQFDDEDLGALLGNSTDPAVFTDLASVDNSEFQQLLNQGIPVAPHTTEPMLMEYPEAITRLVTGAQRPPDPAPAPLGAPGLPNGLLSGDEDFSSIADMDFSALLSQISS
Sequence of DNA (cytosine-5)-methyltransferase 1 (P26358 whole entry): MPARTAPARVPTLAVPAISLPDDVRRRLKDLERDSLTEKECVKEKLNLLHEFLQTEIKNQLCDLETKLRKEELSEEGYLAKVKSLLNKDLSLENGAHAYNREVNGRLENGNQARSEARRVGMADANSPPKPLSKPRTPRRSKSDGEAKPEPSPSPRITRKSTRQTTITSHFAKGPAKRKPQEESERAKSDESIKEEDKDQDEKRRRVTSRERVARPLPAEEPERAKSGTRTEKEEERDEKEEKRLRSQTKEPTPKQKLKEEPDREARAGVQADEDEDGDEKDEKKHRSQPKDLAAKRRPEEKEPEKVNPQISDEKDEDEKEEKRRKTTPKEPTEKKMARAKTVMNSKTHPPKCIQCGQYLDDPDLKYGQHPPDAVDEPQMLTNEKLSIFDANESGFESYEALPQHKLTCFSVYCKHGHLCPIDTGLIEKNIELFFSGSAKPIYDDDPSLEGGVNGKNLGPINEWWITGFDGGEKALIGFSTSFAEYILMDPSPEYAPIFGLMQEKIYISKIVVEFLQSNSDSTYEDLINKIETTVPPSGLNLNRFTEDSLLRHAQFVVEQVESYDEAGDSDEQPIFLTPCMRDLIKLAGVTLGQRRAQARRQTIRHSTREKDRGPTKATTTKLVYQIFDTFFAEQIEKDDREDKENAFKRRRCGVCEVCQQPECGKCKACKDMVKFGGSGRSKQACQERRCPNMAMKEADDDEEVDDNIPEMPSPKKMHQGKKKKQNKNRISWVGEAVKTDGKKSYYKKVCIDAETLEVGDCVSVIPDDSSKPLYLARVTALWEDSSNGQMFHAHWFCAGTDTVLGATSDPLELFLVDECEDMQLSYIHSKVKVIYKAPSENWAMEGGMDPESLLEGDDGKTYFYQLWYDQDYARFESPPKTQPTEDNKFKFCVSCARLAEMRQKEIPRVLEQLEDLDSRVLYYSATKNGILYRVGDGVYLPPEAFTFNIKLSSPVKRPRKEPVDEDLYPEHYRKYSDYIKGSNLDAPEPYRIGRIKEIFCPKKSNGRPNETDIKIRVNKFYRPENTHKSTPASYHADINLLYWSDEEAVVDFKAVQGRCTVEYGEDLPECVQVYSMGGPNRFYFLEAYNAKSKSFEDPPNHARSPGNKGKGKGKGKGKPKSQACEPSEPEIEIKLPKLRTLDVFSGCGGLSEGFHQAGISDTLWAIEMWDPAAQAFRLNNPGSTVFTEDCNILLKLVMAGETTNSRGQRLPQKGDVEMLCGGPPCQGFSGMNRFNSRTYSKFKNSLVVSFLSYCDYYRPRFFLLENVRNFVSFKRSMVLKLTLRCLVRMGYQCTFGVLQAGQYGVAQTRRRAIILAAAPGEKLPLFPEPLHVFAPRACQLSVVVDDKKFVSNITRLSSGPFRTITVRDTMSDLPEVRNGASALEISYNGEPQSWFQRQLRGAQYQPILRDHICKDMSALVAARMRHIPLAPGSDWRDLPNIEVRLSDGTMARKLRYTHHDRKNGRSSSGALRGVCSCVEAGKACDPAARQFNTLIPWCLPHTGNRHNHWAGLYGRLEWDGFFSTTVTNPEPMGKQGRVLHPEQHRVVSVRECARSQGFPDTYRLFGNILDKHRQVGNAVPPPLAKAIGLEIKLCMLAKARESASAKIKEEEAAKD
Sequence of Cyclin-dependent kinase 9 (P50750 whole entry): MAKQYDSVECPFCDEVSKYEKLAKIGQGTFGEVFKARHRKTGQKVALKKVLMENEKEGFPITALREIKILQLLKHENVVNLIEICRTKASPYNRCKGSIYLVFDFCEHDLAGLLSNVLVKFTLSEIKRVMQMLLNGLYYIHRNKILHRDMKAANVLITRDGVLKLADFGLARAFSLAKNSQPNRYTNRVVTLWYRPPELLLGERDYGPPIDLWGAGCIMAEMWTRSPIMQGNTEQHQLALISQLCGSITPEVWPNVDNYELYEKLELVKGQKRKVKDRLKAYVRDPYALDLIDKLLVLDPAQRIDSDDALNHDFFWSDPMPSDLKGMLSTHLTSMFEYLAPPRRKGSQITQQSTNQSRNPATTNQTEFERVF
Sequence of ATP-dependent translocase ABCB1 (P08183 whole entry): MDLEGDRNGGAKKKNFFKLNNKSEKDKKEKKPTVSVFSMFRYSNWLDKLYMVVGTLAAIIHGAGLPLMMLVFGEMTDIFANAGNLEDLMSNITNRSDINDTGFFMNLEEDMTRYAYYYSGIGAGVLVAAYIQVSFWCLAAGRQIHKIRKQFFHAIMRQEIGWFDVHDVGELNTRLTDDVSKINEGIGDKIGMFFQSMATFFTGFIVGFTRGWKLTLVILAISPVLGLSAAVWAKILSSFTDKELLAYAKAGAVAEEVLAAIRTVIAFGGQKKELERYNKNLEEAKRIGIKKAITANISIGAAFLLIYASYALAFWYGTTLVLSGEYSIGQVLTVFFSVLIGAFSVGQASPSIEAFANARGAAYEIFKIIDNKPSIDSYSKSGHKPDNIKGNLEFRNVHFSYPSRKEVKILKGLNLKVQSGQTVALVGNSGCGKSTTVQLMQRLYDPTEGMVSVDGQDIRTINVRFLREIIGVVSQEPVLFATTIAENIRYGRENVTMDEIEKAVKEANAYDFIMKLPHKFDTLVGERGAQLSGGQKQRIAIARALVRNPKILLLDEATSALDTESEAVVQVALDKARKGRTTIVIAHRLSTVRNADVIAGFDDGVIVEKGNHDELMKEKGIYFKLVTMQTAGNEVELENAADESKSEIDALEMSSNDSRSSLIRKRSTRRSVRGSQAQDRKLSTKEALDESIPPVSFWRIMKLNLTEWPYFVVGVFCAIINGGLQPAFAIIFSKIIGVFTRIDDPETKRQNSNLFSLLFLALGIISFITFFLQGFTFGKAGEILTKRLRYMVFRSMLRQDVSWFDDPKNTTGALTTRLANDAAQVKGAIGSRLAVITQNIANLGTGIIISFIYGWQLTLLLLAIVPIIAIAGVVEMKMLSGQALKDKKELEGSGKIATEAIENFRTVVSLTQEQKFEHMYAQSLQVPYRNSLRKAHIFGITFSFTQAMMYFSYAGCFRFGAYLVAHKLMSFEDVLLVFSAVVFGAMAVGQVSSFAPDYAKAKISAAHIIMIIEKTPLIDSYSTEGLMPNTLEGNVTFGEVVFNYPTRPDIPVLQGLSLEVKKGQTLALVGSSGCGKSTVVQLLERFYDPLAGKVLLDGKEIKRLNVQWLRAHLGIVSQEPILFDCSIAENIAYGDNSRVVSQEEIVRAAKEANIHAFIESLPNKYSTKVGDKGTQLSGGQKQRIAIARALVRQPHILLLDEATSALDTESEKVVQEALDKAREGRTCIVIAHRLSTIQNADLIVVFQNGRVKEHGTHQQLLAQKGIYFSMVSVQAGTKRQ
Sequence of Cyclin-dependent kinase 1 (P06493 whole entry): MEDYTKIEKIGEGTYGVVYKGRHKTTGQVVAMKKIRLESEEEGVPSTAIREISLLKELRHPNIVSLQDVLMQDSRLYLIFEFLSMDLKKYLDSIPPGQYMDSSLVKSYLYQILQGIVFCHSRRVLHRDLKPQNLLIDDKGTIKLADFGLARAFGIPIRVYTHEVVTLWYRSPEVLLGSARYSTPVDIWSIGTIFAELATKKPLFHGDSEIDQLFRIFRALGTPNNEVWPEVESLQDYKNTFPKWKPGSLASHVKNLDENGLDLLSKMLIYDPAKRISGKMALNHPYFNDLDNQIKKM

Regarding `CC(C)C[C@H](NC(=O)[C@H](Cc1ccccc1)NC(=O)c1cnccn1)B(O)O` [BORTEZOMIB], in assay [1], the IC50 is no more than 10 nM.

On to `CC(C)c1c2cc(-c3nc(Nc4ccc(N5CCNCC5)cn4)ncc3F)ccc2nn1C` [CULMERCICLIB], for which, in assay [2], the midpoint of inhibition, the IC50, lay at 2.4 nM.

As to `COc1cc(/C=C/C(=O)CC(=O)/C=C/c2ccc(O)c(OC)c2)ccc1O` [CURCUMIN], the IC50 in assay [3], in assay [4] and in assay [5] was no more than 1000 nM throughout.

With `CNC(=O)c1nn(C)c2c1C(C)(C)Cc1cnc(Nc3ccc(N4CCN(C)CC4)cc3)nc1-2` [MILCICLIB], the IC50 in assay [6] is 45 nM.

Take `O=C(Oc1ccccc1C(=O)O)c1ccccc1O` [SALSALATE]: the IC50 in assay [1] was no more than 2000 nM.

Turning to `O=C(O)c1cc(/N=N/c2ccc(S(=O)(=O)Nc3ccccn3)cc2)ccc1O` [SULFASALAZINE], the IC50 in assay [1] was 10000 nM. That is a double-digit micromolar value.

Consider `CN1CC[C@H](c2c(OP(=O)(O)O)cc(O)c3c(=O)cc(-c4ccccc4Cl)oc23)[C@H](O)C1` [TP-1287], for which the midpoint of inhibition in assay [7], the IC50, lay at 10 nM.

On to `CC(C)[C@]12O[C@H]1[C@@H]1O[C@]13[C@]1(O[C@H]1C[C@H]1C4=C(CC[C@@]13C)C(=O)OC4)[C@@H]2O` [TRIPTOLIDE], for which half-maximal inhibition in assay [1] (IC50) required 10 nM.

Turning to `C[C@@H]1C[C@H]2[C@@H]3CCC4=CC(=O)C=C[C@]4(C)C3=CC[C@]2(C)[C@@]1(O)C(=O)CO` [VAMOROLONE], the IC50 in assay [1] amounted to 65.9 nM. This IC50 lies about 6.6-fold higher than the previous one.

In turn, `CN1CC[C@@H](c2c(O)cc(O)c3c(=O)cc(-c4ccc(C(F)(F)F)cc4Cl)oc23)[C@@H]1CO` [VORUCICLIB] displayed an IC50 in assay [8] of 400 nM.

In general, IC50 refers to the concentration that gives 50% inhibition.
